Measurements from ChEMBL document CHEMBL3867477 (Bioorg Med Chem Lett, 2016).

What was measured:
[1] = Displacement of (2S)-N-(2-phenylphenyl)-1-[2-[1-(tritritiomethyl)benzimidazol-2-yl]sulfanylacetyl]pyrrolidine-2-carboxamide from human OX1 receptor Ile408-Val mutant expressed on CHO cell membrane measured after 3 hrs by TopCount method; format: cell membranes
Orexin receptor type 2 = molecular target: T1, Orexin receptor type 2 (Homo sapiens, UniProt O43614); test: Displacement of (2S)-N-(2-pyrrol-1-ylphenyl)-1-[2-[1-(tritritiomethyl)benzimidazol-2-yl]sulfanylacetyl]pyrrolidine-2-carboxamide from human OX2 receptor expressed on CHO cell membrane measured after 3 hrs by TopCount method; format: cell membranes
T1 sequence (O43614 whole entry): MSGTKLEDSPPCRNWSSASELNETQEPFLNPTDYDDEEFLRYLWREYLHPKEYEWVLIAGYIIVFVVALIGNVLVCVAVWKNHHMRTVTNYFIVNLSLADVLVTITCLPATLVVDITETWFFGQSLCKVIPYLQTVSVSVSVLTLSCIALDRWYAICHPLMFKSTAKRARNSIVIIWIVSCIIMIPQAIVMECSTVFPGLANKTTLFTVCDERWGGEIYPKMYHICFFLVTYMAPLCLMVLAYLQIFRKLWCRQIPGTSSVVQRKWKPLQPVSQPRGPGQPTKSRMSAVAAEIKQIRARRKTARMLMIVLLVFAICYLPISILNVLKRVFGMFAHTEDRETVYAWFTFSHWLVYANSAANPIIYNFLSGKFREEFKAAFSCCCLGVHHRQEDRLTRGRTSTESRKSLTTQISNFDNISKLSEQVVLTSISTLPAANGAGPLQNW

CHO = test: Selectivity index, ratio of Ki for human OX2 receptor expressed on CHO cell membrane to Ki for Ile408-Val variant human OX1 receptor expressed on CHO cell membrane; format: cell-based
Cytochrome P450 3A4 = Cytochrome P450 3A4 (Homo sapiens, UniProt P08684); test: Inhibition of CYP3A4 (unknown origin); format: ADME
[2] = molecular target: Voltage-dependent L-type calcium channel subunit alpha-1C (Homo sapiens, UniProt Q13936); test: Inhibition of Cav1.2 (unknown origin)
Cytochrome P450 2C9 = Cytochrome P450 2C9 (Homo sapiens, UniProt P11712); test: Inhibition of CYP2C9 (unknown origin); format: ADME
[3] = Solubility of the compound; format: physicochemical

Sequence of Voltage-dependent L-type calcium channel subunit alpha-1C (Q13936 whole entry): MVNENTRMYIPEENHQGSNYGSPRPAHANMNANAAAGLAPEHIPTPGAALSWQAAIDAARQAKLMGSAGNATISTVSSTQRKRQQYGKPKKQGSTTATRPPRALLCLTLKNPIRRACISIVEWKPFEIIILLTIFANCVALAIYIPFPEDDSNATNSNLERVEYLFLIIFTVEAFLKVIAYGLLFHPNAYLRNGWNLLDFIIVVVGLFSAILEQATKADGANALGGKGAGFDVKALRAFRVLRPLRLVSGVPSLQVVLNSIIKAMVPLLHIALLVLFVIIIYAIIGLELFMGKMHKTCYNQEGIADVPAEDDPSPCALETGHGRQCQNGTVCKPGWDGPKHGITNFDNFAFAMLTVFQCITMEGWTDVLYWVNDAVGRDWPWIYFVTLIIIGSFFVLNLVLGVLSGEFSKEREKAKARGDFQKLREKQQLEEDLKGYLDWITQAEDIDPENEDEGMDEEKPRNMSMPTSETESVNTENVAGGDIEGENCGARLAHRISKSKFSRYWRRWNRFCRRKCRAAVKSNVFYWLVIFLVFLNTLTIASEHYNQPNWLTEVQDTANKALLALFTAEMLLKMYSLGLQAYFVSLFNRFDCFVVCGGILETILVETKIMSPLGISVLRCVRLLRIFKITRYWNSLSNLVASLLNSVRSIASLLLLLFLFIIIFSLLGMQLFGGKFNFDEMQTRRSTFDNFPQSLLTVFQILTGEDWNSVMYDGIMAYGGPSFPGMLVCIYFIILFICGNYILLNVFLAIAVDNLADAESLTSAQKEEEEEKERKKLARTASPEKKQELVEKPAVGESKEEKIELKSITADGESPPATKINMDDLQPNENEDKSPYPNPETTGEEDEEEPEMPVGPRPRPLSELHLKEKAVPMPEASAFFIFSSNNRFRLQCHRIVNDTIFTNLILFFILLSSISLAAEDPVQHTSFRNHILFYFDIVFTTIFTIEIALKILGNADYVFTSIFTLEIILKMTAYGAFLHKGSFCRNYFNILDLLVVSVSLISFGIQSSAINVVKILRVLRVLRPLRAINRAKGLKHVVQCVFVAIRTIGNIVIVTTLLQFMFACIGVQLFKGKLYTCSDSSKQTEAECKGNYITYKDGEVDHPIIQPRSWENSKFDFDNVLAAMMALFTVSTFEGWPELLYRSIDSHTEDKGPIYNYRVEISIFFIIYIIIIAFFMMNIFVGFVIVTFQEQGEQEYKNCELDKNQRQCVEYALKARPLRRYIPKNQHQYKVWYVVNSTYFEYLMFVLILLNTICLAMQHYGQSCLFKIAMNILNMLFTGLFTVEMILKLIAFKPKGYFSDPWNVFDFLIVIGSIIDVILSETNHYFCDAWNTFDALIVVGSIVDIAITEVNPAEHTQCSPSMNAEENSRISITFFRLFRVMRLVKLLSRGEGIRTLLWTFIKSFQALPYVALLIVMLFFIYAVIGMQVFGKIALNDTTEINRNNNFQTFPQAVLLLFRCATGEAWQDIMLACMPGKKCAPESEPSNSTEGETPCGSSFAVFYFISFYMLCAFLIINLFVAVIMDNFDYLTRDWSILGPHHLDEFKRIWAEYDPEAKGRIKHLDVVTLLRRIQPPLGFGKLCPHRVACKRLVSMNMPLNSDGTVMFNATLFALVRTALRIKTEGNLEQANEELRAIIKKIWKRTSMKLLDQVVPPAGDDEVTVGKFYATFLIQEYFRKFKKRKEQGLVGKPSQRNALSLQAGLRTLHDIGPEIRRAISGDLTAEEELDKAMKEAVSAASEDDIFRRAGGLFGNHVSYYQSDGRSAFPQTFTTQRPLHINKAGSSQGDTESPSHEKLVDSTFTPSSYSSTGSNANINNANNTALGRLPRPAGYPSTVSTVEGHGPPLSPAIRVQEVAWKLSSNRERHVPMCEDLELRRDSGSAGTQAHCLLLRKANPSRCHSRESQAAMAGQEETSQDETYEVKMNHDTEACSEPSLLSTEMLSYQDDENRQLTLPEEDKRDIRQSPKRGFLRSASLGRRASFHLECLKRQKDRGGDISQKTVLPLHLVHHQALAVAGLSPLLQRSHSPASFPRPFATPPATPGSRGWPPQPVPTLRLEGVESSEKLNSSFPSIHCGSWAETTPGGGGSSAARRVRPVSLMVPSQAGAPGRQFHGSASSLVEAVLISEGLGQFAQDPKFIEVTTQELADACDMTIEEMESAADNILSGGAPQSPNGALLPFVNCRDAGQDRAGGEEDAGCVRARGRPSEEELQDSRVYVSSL
Sequence of Cytochrome P450 3A4 (P08684 whole entry): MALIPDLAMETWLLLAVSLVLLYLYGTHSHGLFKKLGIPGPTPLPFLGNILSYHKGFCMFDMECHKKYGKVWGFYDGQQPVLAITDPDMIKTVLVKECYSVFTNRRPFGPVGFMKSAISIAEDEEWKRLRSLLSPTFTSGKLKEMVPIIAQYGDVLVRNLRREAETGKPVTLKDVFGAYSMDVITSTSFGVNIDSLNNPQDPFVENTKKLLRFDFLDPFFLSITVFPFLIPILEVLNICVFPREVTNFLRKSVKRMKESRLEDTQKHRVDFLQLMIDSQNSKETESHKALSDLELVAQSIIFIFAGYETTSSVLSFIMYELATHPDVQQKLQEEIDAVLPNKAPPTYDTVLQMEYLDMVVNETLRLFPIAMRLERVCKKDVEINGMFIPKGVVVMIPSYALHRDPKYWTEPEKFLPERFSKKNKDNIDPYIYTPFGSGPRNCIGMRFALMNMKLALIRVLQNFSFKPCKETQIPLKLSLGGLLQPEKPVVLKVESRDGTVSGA
Sequence of Cytochrome P450 2C9 (P11712 whole entry): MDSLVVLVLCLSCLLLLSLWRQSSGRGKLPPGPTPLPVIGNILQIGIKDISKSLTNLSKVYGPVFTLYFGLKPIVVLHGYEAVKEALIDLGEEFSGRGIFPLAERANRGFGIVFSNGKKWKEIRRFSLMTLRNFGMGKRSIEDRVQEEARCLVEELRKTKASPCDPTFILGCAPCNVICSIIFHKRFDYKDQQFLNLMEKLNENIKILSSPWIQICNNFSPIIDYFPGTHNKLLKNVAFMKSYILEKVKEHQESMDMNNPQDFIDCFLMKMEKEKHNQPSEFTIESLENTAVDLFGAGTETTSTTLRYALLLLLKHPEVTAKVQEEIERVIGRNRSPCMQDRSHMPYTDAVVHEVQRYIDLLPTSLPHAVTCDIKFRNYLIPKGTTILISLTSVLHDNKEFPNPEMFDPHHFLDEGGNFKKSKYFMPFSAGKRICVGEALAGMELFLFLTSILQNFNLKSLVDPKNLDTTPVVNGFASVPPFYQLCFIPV

Row | SMILES | Ki [1] | Ki (Orexin receptor type 2) | Ratio Ki (CHO) | inhibition (INH) (Cytochrome P450 3A4) | inhibition (INH) [2] | inhibition (INH) (Cytochrome P450 2C9) | solubility [3] | INH (Cytochrome P450 3A4) | INH (Cytochrome P450 2C9)
1 | O=C(c1ccccc1-n1nccn1)N1CCC[C@@H](Oc2ccc3ccccc3n2)C1 | 1.4 nM | 27 nM | 19 |  |  |  |  |  | 
2 | O=C(c1ccccc1-n1nccn1)N1CCC(F)(F)C(Oc2cccc(C(F)(F)F)n2)C1 (stereo unspecified) | 240 nM | 907 nM | 3.8 | Active | Active | Active | Insoluble |  | 
3 | O=C(c1cccc2ncccc12)N1CCC(F)(F)C(Oc2ccc3ccccc3n2)C1 (racemic) | 140 nM | 861 nM | 6.2 |  |  |  |  |  | 
4 | O=C(c1ccccc1-n1nccn1)N1CCC(F)(F)C(Oc2ccccn2)C1 (stereo unspecified) | 4050 nM | 1040 nM | 0.26 | Active | Active | Active | Insoluble |  | 
5 | O=C(c1cccc2nccn12)N1CCC(F)(F)C(Oc2ccc3ccccc3n2)C1 (racemic) | 564 nM | > 3330 nM | > 6 |  |  |  |  |  | 
6 | O=C(c1ccccc1-n1nccn1)N1CCC(F)(F)C(Oc2cc3ccccc3cn2)C1 (stereo unspecified) | 59 nM | 379 nM | 6.4 | Active | Active | Active | Insoluble |  | 
7 | O=C(c1ccccc1-n1nccn1)N1CCC(F)(F)C(Oc2cc(C(F)(F)F)ccn2)C1 (stereo unspecified) | 292 nM | 14 nM | 0.05 | Active | Active | Active | Insoluble |  | 
8 | O=C(c1ccccc1-n1nccn1)N1CCC(F)(F)C(Oc2nc3ccccc3s2)C1 (stereo unspecified) | 2.3 nM | 220 nM | 96 | Active | Active | Active | Insoluble |  | 
9 | COc1ccc(C[C@H]2c3cc(OC)c(OC)cc3CCN2[C@@H](C(=O)NC(C)C)c2ccccc2)cc1OC | 6 nM |  |  |  |  |  |  |  | 
10 | O=C(c1cccn2cncc12)N1CCC(F)(F)C(Oc2ccc3ccccc3n2)C1 (racemic) | 2.9 nM | > 12700 nM | > 439 |  |  |  |  |  | 
11 | O=C(c1cccc2cncn12)N1CCC(F)(F)C(Oc2ccc3ccccc3n2)C1 (racemic) | 52 nM | > 2100 nM | > 40 |  |  |  |  |  | 
12 | COc1ccc(F)c(C(=O)N2CCC(F)(F)[C@@H](Oc3ccc4ccccc4n3)C2)c1F | 1.1 nM | 1230 nM | 1120 |  | Active |  | Insoluble | 6.7 µM | 10.8 µM
13 | O=C(c1ccccc1-n1nccn1)N1CCC(F)(F)C(Oc2ccnc3ccccc23)C1 (stereo unspecified) | 7970 nM | 277 nM | 0.035 | Active | Active | Active | Insoluble |  | 
14 | O=C(c1ccccc1-c1ncccn1)N1CCC(F)(F)[C@@H](Oc2ccc3ccccc3n2)C1 | 1.8 nM | 281 nM | 156 |  |  |  |  |  | 
15 | O=C(c1ccccc1-n1nccn1)N1CCC(F)(F)C(Oc2ccc3ccccc3n2)C1 (racemic) | 3.9 nM | 1140 nM | 292 |  |  |  |  |  | 
16 | O=C(c1ccccc1)N1CCC(F)(F)C(Oc2ccc3ccccc3n2)C1 (racemic) | 55 nM | > 12700 nM | > 230 | Active | Active | Active | Insoluble |  | 

Row | SMILES | Ki [1] | Ki (Orexin receptor type 2) | Ratio Ki (CHO) | inhibition (INH) (Cytochrome P450 3A4) | inhibition (INH) [2] | inhibition (INH) (Cytochrome P450 2C9) | solubility [3] | INH (Cytochrome P450 3A4) | INH (Cytochrome P450 2C9)
17 | COc1ccc(F)c(C(=O)N2CCC(F)(F)C(Oc3ccc4ccccc4n3)C2)c1 (racemic) | 3.4 nM | 1620 nM | 476 |  | Active |  | Insoluble | 6.7 µM | 10.8 µM
18 | O=C(c1ccnc2[nH]cnc12)N1CCC(F)(F)C(Oc2ccc3ccccc3n2)C1 (racemic) | 89 nM | > 5870 nM | > 65 |  |  |  |  |  | 
19 | O=C(c1cccc(F)c1)N1CCC(F)(F)C(Oc2ccc3ccccc3n2)C1 (racemic) | 91 nM | > 4380 nM | > 48 | Active | Active | Active | Insoluble |  | 
20 | Cc1ccc(-c2ncccn2)c(C(=O)N2CC(COc3ccc(F)cn3)CC[C@H]2C)c1 (stereo partly specified) | 11 nM | 11 nM | 1.1 |  |  |  |  |  | 
21 | O=C(c1cccc(-n2cccn2)c1)N1CCC(F)(F)[C@@H](Oc2ccc3ccccc3n2)C1 | 1.1 nM | 627 nM | 570 |  |  |  |  |  | 
22 | O=C(c1cccc(-n2nccn2)c1)N1CCC(F)(F)[C@@H](Oc2ccc3ccccc3n2)C1 | 8.3 nM | 871 nM | 104 |  |  |  |  |  | 
23 | O=C(c1ccccc1-n1nccn1)N1CCC(F)(F)C(Oc2ncc3ccccc3n2)C1 (stereo unspecified) | 13 nM | 1470 nM | 113 | Active | Active | Active | Insoluble |  | 
24 | COc1cccc(C(=O)N2CCC(F)(F)C(Oc3ccc4ccccc4n3)C2)c1 (racemic) | 9.1 nM | > 4380 nM | > 481 | Active | Active | Active | Insoluble |  | 
25 | O=C(c1ccccc1-n1nccn1)N1CCC(F)(F)C(Oc2ccc3cccnc3n2)C1 (stereo unspecified) | 1160 nM | > 1410 nM |  | Active | Active | Active | Insoluble |  | 
26 | C[C@@H]1CC[C@@H](Oc2ccc3ccccc3n2)CN1C(=O)c1ccccc1-n1nccn1 | 3.9 nM | 9 nM | 2.3 |  |  |  |  |  | 
27 | O=C(c1ccc(F)cc1)N1CCC(F)(F)C(Oc2ccc3ccccc3n2)C1 (racemic) | 1080 nM | > 4380 nM | > 4 | Active | Active | Active | Insoluble |  | 
28 | O=C(c1ccccc1-n1nccn1)N1CCC(F)(F)C(Oc2cnc3ccccc3n2)C1 (stereo unspecified) | 13 nM | 933 nM | 72 | Active | Active | Active | Insoluble |  | 
29 | O=C(c1ccccc1-n1nccn1)N1CCC(F)(F)C(Oc2ccc(C(F)(F)F)cn2)C1 (stereo unspecified) | 14 nM | 467 nM | 33 | Active | Active | Active | Insoluble |  | 
30 | O=C(c1ccccc1-n1nccn1)N1CCC(F)(F)C(O)C1 (stereo unspecified) | 2240 nM | > 3370 nM |  |  |  |  |  |  | 
31 | O=C(c1cncc2[nH]ccc12)N1CCC(F)(F)[C@@H](Oc2ccc3ccccc3n2)C1 | 0.28 nM | 108 nM | 386 |  |  |  |  |  | 
32 | O=C(c1cccc(-c2ncc[nH]2)c1)N1CCC(F)(F)[C@@H](Oc2ccc3ccccc3n2)C1 | 0.14 nM | 193 nM | 1000 to 1380 |  |  |  |  |  | 
